Reference: publication PMC10892409, “Exploring Ocimum basilicum’s Secondary Metabolites: Inhibition and Molecular Docking against Rhynchophorus ferrugineus for Optimal Action” (Plants, 2024)
Values after ≈ are worked out from the molar mass of the structure shown. Values joined by “and” are separate entries in the source; they are usually repeats but may differ in a detail not shown here. Identical values can stand only once.

How the values were obtained:
ALPs [1] = experiment: In vivo ALP inhibition in treated fourth-instar larvae; design: species or system Rhynchophorus ferrugineus; conditions: fourth-instar larvae treated 24 h
Experimental: (§1) Activities of ACPs and ALPs were evaluated using a modified version of the Asakura technique. The ACP test required incubating 100 μL of crude enzyme in a buffer of 650 μL of sodium acetate (pH: 5.0; 50 mM with ACPs) or 250 μL of Tris–HCl (at 50 mM; pH: 8.0 with ALPs) and p-nitrophenyl phosphate (5.5 mM). For 30 min; the various mixes were kept at 37 °C for incubation. Thereafter, 500 μL of NaOH (0.5 N) stopped the reaction. Using an ELISA plate reader, we determined the mixture’s 415 nm absorbance value (Multiskan SkyHigh Microplate Spectrophotometer). The ACP- and ALP-specific activity was estimated as OD 415/mg protein·h.
(§2) Each enzyme’s in vivo impact was measured after treating larvae with an extract or pure chemicals. An inhibitor-free test combination served as a negative control. We determined the absorbance of the enzymes throughout a spectrum of wavelengths using a rapid reader for ELISA plates (Multiskan SkyHigh Microplate Spectrophotometer). Extracts and pure chemicals were used to treat R. ferrugineus larvae at previous serial concentrations, and their AChE, ACP, ALP, and GABA-T activity was tested in vivo using the methods outlined above. Larvae spent a day on leaf disks treated with chemicals or extract.

[2] = test system: fourth-instar larvae of R. ferrugineus; experiment: Topical application (contact) to fourth-instar larvae (probit LD50); assay type: in vivo, Rhynchophorus ferrugineus; conditions: after 1 day of treatment, 95% confidence limits in brackets
Experimental: (§3) Over the course of 40 days, an O. basilicum cell suspension was cultivated in this investigation, and then the extract was obtained. […] Long segments of sugarcane stem were employed in the insect breeding lab at King Faisal University’s Research and Training Center to raise adult R. ferrugineus larvae. For this experiment, we used a topical application technique with larvae stored at 4 °C for five minutes to test the extract’s activity. Using a hand-operated micro-applicator (Burkard Manufacturing Co., Ltd., Hertfordshire, UK, collected using a […] micro-syringe), extracts at escalating ratios (10 µL) were injected into the dorsal surface of the larvae (Ito Corp.; MS-N50, Shizuoka, Japan). Five larvae per box in a series of three replicates were fed on sugarcane stem pieces measuring 10 cm in length. The LD50 was calculated by measuring the percentage of dead larvae at 24, 48, 72, and 96 h following a topical application. The antifeedant impact was determined in adults by giving them 10 cm sugarcane stem segments cut in half longitudinally. Long strips of sugarcane stem (32 cm^2) were immersed in the previous serial extract and compound concentration (10 mL) for ten seconds before they were dried in ambient air using a plastic box. Each box included a new pair of larvae (a male and a female). Ten sets of each treatment were performed. Data on how well the subjects ate were evaluated at 24, 48, 72, and 96 h.
(§4) The tissue culture parameters were calculated quantitatively from three independent sets of samples, and the mean SD was used to describe the findings. Toxicity parameters were determined quantitatively using a 10-replicate sample, and means and standard deviations were used to present the data. The median dosage obtained from a dose–response regression was used to calculate the LC50 value. By analyzing the comparative growth rate vs. the crude extract logarithm using least squares regression, the range of LC50 was calculated with 95% confidence. A simple variance study was performed on the increased weight and enzymatic activity data (ANOVA). The distinction between the means was accomplished using the Student–Newman–Keuls (SNK) test. Additionally, SPSS version 25 was used to find p < 0.05 significant deviations from the mean.

AChE [3] = experiment: In vivo AChE inhibition in treated fourth-instar larvae; design: species or system Rhynchophorus ferrugineus; conditions: fourth-instar larvae treated 24 h
Experimental: (§5) The enzyme AChE was assessed using a substrate of acetylthiocholine iodide and evaluated using 5,5′-dithiobis [2-nitrbenzoic acid] (DTNB), according to [94]. Each well contained a sodium phosphate buffer (140 µL) (pH: 8.0; 100 mM), DTNB (10 µL), extract (20 µL)/components at 1, 10, 50, 100, and 1000 µg/mL in DMSO and underwent 15 min of incubation at 25 °C. Acetylthiocholine (ATCh) was added to start the reaction (10 µL). The ATCh enzymatic hydrolysis produced a 5-thio-2-nitrobenzoate anion as a color (yellow) that was detected by measuring its wavelength, i.e., 412 nm, thereby allowing the researchers to track the rate of ATCh hydrolysis (15 min). Each response was performed three times on a microplate and examined using an ELISA plate reader to determine the 412 nm absorbance of the combination (Multiskan SkyHigh Microplate Spectrophotometer). The AChE-specific activity was measured as OD412/mg protein.h. based on observing the effect of raising the quantities of all of these compounds during the tests on the inhibition results, and the inhibitory concentration (IC50) was calculated. Then, a computer algorithm was used to determine the IC50 values (Version 9.01 of GraphPad Prism by Inc., 2020, San Diego, CA, USA).
as §2

ACPs [4] = experiment: In vitro ACP inhibition, larval homogenate; assay type: biochemical, Rhynchophorus ferrugineus; conditions: fourth-instar larvae preparation
Experimental: (§6) The R. ferrugineus were homogenized larvae in a buffer (sodium phosphate, 40 mM, and pH 7.4); then, sodium chloride (10 mM dissolved in 1% (w/v) triton X-100) was added. During centrifugation (Sigma 3–30 KS), the homogenate was chilled to 4 °C and spun at a speed of 5000 rpm (20 min). The supernatant was either immediately put into action for an enzymatic test or frozen and kept at […] for later use. Each test was repeated three times. The protein content was determined using the same protocol employed by Lowry with modification using protein extract (100 µL) combined with an alkaline copper solution and a Folin–Ciocalteu phenol reagent (2 mL and 200 µL, respectively). The intensity of the resulting blue hue was evaluated during 30 min of incubation at 25 °C. Using an ELISA plate reader and a BSA standard curve, we could calculate the protein concentration by analyzing the absorbance at 600 nm (Multiskan SkyHigh Microplate Spectrophotometer, Thermo Fisher Scientific, Waltham, MA, USA).
as §1

R. ferrugineus adults = experiment: Antifeedant/insecticidal test on adults with treated sugarcane stem (probit LC50); assay type: in vivo, Rhynchophorus ferrugineus; conditions: Rhynchophorus ferrugineus, 24 h, after 1 day of treatment, 95% confidence limits in brackets, read-out: LC50
Experimental: as §3, §4

ACPs [5] = experiment: In vivo ACP inhibition in treated fourth-instar larvae; design: species or system Rhynchophorus ferrugineus; conditions: fourth-instar larvae treated 24 h
Experimental: as §1, §2

AChE [6] = experiment: In vitro AChE inhibition, larval homogenate (Ellman); assay type: biochemical, Rhynchophorus ferrugineus; conditions: fourth-instar larvae preparation
Experimental: as §6, §5

ALPs [7] = experiment: In vitro ALP inhibition, larval homogenate; assay type: biochemical, Rhynchophorus ferrugineus; conditions: for IC50 ALPs in vitro: fourth-instar larvae preparation
Experimental: as §6, §1

## COc1ccc(-c2cc(=O)c3c(O)c(OC)c(OC)cc3o2)cc1 [Salvigenin]
ALPs [1]; listed as salvigenin
  IC50 ALPs in vivo: 228.7 µg/mL
[2]
  LD50: 10.8 (10.2–11.5) µg/Larvae
[2]; listed as salvigenin
  LD50: 10.8 µg/Larvae
AChE [3]
  IC50 AChE in vivo: 258 ± 1.23 µg/mL
AChE [3]; listed as salvigenin
  IC50 AChE in vivo: 258.4 µg/mL
ACPs [4]; listed as salvigenin
  IC50 ACPs in vitro: 151.2 µg/mL (≈ 461 µM)
R. ferrugineus adults
  LC50: 1140 µg/mL (≈ 3480 µM)
ACPs [5]; listed as salvigenin
  IC50 ACPs in vivo: < 330 µg/mL and 294.2 µg/mL
AChE [6]
  IC50 AChE in vitro: 130 ± 1.23 µg/mL
AChE [6]; listed as salvigenin
  IC50 AChE in vitro: 129.7 µg/mL
ALPs [7]
  IC50 ALP in vitro: 123 µg/mL (≈ 374 µM)
ALPs [7]; listed as salvigenin
  IC50 ALPs in vitro: < 200 µg/mL

## O=C(/C=C/c1ccc(O)c(O)c1)O/C=C\c1ccc(O)c(O)c1 [Nepetoidin B]
ALPs [1]; listed as nepetoidin B
  IC50 ALPs in vivo: 307.9 µg/mL
[2]
  LD50: 11.5 (10.9–12.1) µg/Larvae
[2]; listed as nepetoidin B
  LD50: 11.5 µg/Larvae
AChE [3]
  IC50 AChE in vivo: 282 ± 1.38 µg/mL
AChE [3]; listed as nepetoidin B
  IC50 AChE in vivo: 281.7 µg/mL
ACPs [4]; listed as nepetoidin B
  IC50 ACPs in vitro: 154.2 µg/mL (≈ 491 µM)
R. ferrugineus adults
  LC50: 1270 µg/mL (≈ 4050 µM)
ACPs [5]; listed as nepetoidin B
  IC50 ACPs in vivo: < 330 µg/mL and 294.3 µg/mL
AChE [6]
  IC50 AChE in vitro: 147 ± 1.38 µg/mL
AChE [6]; listed as nepetoidin B
  IC50 AChE in vitro: 147.2 µg/mL
ALPs [7]
  IC50 ALP in vitro: 166 µg/mL (≈ 529 µM)
ALPs [7]; listed as nepetoidin B
  IC50 ALPs in vitro: < 200 µg/mL

## O=C(/C=C/c1ccc(O)c(O)c1/C=C/c1ccc(O)c(O)c1)O[C@H](Cc1ccc(O)c(O)c1)C(=O)O [Salvianolic acid A]
ALPs [1]
  IC50 ALPs in vivo: 213.8 µg/mL
[2]
  LD50: 11.3 (10.2–12.47) µg/Larvae
[2]; listed as salvianolic acid A
  LD50: 11.3 µg/Larvae
AChE [3]
  IC50 AChE in vivo: 178.2 µg/mL
ACPs [4]; listed as salvianolic acid A
  IC50 ACPs in vitro: 112.2 µg/mL (≈ 227 µM)
R. ferrugineus adults
  LC50: 1260 µg/mL (≈ 2550 µM)
ACPs [5]
  IC50 ACPs in vivo: < 330 µg/mL and 226.3 µg/mL
AChE [6]
  IC50 AChE in vitro: 94 ± 0.94 µg/mL
AChE [6]; listed as salvianolic acid A
  IC50 AChE in vitro: 93.6 µg/mL
ALPs [7]
  IC50 ALP in vitro: 116 µg/mL (≈ 234 µM)
ALPs [7]; listed as salvianolic acid A
  IC50 ALPs in vitro: < 200 µg/mL

## COc1cc(/C=C/C(=O)O[C@@H](C(=O)O)[C@@H](O)C(=O)O)ccc1O [Fertaric acid]
ALPs [1]; listed as fertaric acid
  IC50 ALPs in vivo: 436.8 µg/mL
[2]
  LD50: 19.46 (18.23–20.76) µg/Larvae
[2]; listed as fertaric acid
  LD50: 19.46 µg/Larvae
AChE [3]
  IC50 AChE in vivo: 385 ± 1.18 µg/mL
AChE [3]; listed as fertaric acid
  IC50 AChE in vivo: 384.7 µg/mL
ACPs [4]; listed as fertaric acid
  IC50 ACPs in vitro: 133.5 µg/mL (≈ 409 µM)
R. ferrugineus adults
  LC50: 1530 µg/mL (≈ 4680 µM)
ACPs [5]; listed as fertaric acid
  IC50 ACPs in vivo: 349.4 µg/mL
AChE [6]
  IC50 AChE in vitro: 124 ± 1.18 µg/mL
AChE [6]; listed as fertaric acid
  IC50 AChE in vitro: 123.6 µg/mL
ALPs [7]
  IC50 ALP in vitro: 137 µg/mL (≈ 421 µM)
ALPs [7]; listed as fertaric acid
  IC50 ALPs in vitro: < 200 µg/mL
